In patent US20150031668A1, “CHROMAN DERIVATIVES AS TRPM8 INHIBITORS” (AMGEN INC., priority 2013, published 2015) one finds IC50 data, which are given here for 36 molecules.

As a reminder, the IC50 is the concentration at which inhibition is half-maximal.

For the test, the target named is T1, human TRPM8 (Homo sapiens, UniProt Q7Z2W7).
T1 construct: expressed in transfected cells; host or cells: Chinese hamster ovary (CHO) cells, T-REx tetracycline-inducible expression system (Invitrogen); co-transfected with pcDNA3.1 aequorin
Kind of test: Luminescence readout assay for measuring intracellular calcium (aequorin, CHO cells expressing human TRPM8; icilin, L-menthol or cold activation). The note with it: CHO cells expressing human TRPM8, icilin activation (1 μM), aequorin luminescence; read-out: hTRPM8 IC50. It is filed as cell-based. The protocol:
Luminescence Readout Assay for Measuring Intracellular Calcium
A stable Chinese hamster ovary cell line expressing human TRPM8 was generated using tetracycline inducible T-REx™ expression system from Invitrogen, Inc. (Carlsbad, Calif.). […] Twenty four hours before the assay, cells were seeded in 96-well plates and TRPM8 expression was induced with 0.5 μg/ml tetracycline. On the day of the assay, culture media was removed and cells were incubated with assay buffer
Potential antagonists were added 2.5 min prior to the addition of agonist, 1 μM icilin, 100 μM L-menthol, or 1 min prior to the addition of cold buffer (<10° C.). The luminescence was measured by a CCD camera based FLASH-luminometer built by Amgen, Inc. A cooling device attached to FLASH luminometer was used for cold activation.
A general note: Calcium flux is commonly read through the fluorescence of an indicator in the cells.

T1 sequence (Q7Z2W7 whole entry): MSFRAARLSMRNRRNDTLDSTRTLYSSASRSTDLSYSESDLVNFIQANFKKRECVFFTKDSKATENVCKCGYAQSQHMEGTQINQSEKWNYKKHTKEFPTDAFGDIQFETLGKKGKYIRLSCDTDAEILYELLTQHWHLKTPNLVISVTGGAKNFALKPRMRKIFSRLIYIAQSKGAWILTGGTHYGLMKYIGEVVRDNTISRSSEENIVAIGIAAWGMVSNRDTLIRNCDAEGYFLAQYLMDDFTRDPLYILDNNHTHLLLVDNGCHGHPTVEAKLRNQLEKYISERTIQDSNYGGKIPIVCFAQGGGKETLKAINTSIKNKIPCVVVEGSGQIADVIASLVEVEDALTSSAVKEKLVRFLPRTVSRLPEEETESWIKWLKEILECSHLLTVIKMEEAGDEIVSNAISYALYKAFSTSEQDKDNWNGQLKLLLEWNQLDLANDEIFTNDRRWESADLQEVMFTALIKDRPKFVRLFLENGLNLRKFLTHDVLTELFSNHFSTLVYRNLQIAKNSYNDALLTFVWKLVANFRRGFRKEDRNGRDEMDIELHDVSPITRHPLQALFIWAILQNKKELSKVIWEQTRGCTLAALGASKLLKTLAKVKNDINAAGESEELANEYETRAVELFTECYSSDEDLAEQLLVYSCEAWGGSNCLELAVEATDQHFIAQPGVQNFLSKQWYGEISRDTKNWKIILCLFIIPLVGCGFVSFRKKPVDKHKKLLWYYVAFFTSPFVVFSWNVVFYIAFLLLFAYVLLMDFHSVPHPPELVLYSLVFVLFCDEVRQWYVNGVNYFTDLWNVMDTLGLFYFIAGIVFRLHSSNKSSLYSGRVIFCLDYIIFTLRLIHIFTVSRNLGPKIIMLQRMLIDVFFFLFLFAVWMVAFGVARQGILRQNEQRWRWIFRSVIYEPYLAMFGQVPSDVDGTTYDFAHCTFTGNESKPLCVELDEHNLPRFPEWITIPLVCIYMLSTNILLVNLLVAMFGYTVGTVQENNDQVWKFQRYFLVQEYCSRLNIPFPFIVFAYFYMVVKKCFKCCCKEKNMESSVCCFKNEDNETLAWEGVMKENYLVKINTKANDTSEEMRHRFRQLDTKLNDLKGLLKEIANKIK

Turning to `CC(O)c1ccc(C(=O)N[C@]2(c3ccc(OC(F)(F)F)c(F)c3)CCOc3cccnc32)cc1` (mixture of isomers) [Example 157, N—((S)-4-(3-fluoro-4-(trifluoromethoxy)phenyl)-3,4-dihydro-2H-pyrano[3,2-b]pyridin-4-yl)-4-((R)-1-hydroxyethyl)benzamide and N—((S)-4-(3-fluoro-4-(trifluoromethoxy)phenyl)-3,4-dihydro-2H-pyrano[3,2-b]pyridin-4-yl)-4-((S)-1-hydroxyethyl)benzamide (1:1)], the IC50 amounted to 12 nM. `O=C(N[C@]1(c2ccc(OC(F)(F)F)c(F)c2)CCOc2cccnc21)c1ccc(C(O)C(F)(F)F)cc1` (mixture of isomers) [Example 159, N—((S)-4-(3-fluoro-4-(trifluoromethoxy)phenyl)-3,4-dihydro-2H-pyrano[3,2-b]pyridin-4-yl)-4-((R)-2,2,2-trifluoro-1-hydroxyethyl)benzamide and N—((S)-4-(3-fluoro-4-(trifluoromethoxy)phenyl)-3,4-dihydro-2H-pyrano[3,2-b]pyridin-4-yl)-4-((S)-2,2,2-trifluoro-1-hydroxyethyl)benzamide (1:1)]: the IC50 was 46 nM.

`O=C(N[C@]1(c2ccc(C(F)(F)F)cc2)CCOc2cccnc21)c1ccccc1` (single isomer, unassigned) [Example 1]: the IC50 came out at 14 nM. On to `O=C(N[C@]1(c2ccc(C(F)(F)F)cc2)CCOc2cccnc21)c1ccc(F)cc1` (single isomer, unassigned) [Example 2], for which the IC50 came out at 86 nM. For the molecule `O=C(N[C@]1(c2ccc(Cl)c(Cl)c2)CCOc2cccnc21)c1ccccc1` (single isomer, unassigned) [Example 3], the concentration for half-maximal inhibition (IC50) was 25 nM. Turning to `O=C(N[C@]1(c2ccc(C(F)(F)F)cc2)CCOc2cccnc21)c1ccc(O)cc1` (single isomer, unassigned) [Example 4], the IC50 stood at 9 nM. For the molecule `COc1ccc(C(=O)N[C@]2(c3ccc(C(F)(F)F)cc3)CCOc3cccnc32)cc1` (single isomer, unassigned) [Example 5], the IC50 is 21 nM. Then `O=C(N[C@]1(c2ccc(Cl)cc2)CCOc2cccnc21)c1ccccc1` (single isomer, unassigned) [Example 14], with 91 nM.

With `O=C(N[C@]1(c2ccc(Cl)c(F)c2)CCOc2cccnc21)c1ccccc1` (single isomer, unassigned) [Example 15], the IC50 came to 54 nM. With `O=C(N[C@]1(c2ccc(F)cc2)CCOc2cccnc21)c1ccccc1` (single isomer, unassigned) [Example 16] the figure was 357 nM; with `O=C(N[C@]1(c2cccc(OC(F)(F)F)c2)CCOc2cccnc21)c1ccccc1` (single isomer, unassigned) [Example 17], 60 nM; with `Cc1ccc([C@@]2(NC(=O)c3ccccc3)CCOc3cccnc32)cc1` (single isomer, unassigned) [Example 18], 162 nM. In the case of `O=C(N[C@]1(c2ccc(C(F)(F)F)c(F)c2)CCOc2cccnc21)c1ccccc1` (single isomer, unassigned) [Example 19], the IC50 was 12 nM. For the molecule `O=C(N[C@]1(c2ccc(C(F)(F)F)cc2)CCOc2cccnc21)c1ccc2[nH]c(=O)oc2c1` (single isomer, unassigned) [Example 20], the IC50 is 10 nM. With `O=C(N[C@]1(c2ccc(C(F)(F)F)cc2)CCOc2ccccc21)c1ccccc1` (single isomer, unassigned) [Example 28] the figure was 1660 nM. Then `O=C(NC1(c2ccc(OC(F)(F)F)c(F)c2)CCOc2cccnc21)c1ccc(F)cc1` (stereo not drawn) [Example 6, 4-fluoro-N-(4-(3-fluoro-4-(trifluoromethoxy)phenyl)-3,4-dihydro-2H-pyrano[3,2-b]pyridin-4-yl)benzamide], with 34 nM; and `O=C(NC1(c2ccc(OC(F)(F)F)c(F)c2)CCOc2cccnc21)c1ccccc1` (stereo not drawn) [Example 7, N-(4-(3-fluoro-4-(trifluoromethoxy)phenyl)-3,4-dihydro-2H-pyrano[3,2-b]pyridin-4-yl)benzamide], with 32 nM.

Regarding `O=C(NC1(c2ccc(OC(F)(F)F)cc2)CCOc2cccnc21)c1ccc(F)cc1` (stereo not drawn) [Example 8, 4-fluoro-N-(4-(4-(trifluoromethoxy)phenyl)-3,4-dihydro-2H-pyrano[3,2-b]pyridin-4-yl)benzamide], the IC50 came out at 75 nM.

Take `O=C(NC1(c2ccc(OC(F)(F)F)cc2)CCOc2cccnc21)c1ccccc1` (stereo not drawn) [Example 9, N-(4-(4-(trifluoromethoxy)phenyl)-3,4-dihydro-2H-pyrano[3,2-b]pyridin-4-yl)benzamide]: the IC50 came out at 38 nM.

On to `O=C(NC1(c2ccc(Cl)c(Cl)c2)CCOc2cccnc21)c1ccc(F)cc1` (stereo not drawn) [Example 10, N-(4-(3,4-dichlorophenyl)-3,4-dihydro-2H-pyrano[3,2-b]pyridin-4-yl)-4-fluorobenzamide], for which the IC50 turned out to be 163 nM. Regarding `O=C(NC1(c2ccccc2)CCOc2cccnc21)c1ccc(F)cc1` (stereo not drawn) [Example 11, 4-fluoro-N-(4-phenyl-3,4-dihydro-2H-pyrano[3,2-b]pyridin-4-yl)benzamide], the concentration for half-maximal inhibition (IC50) turned out to be 2570 nM. Consider `O=C(NC1(c2ccccc2)CCOc2cccnc21)c1ccccc1` (stereo not drawn) [Example 12, N-(4-phenyl-3,4-dihydro-2H-pyrano[3,2-b]pyridin-4-yl)benzamide], for which the IC50 worked out at 2070 nM. Then `O=C(NC1(c2ccc(C(F)(F)F)nc2)CCOc2cccnc21)c1ccccc1` (stereo not drawn) [Example 13, N-(4-(6-(trifluoromethyl)pyridin-3-yl)-3,4-dihydro-2H-pyrano[3,2-b]pyridin-4-yl)benzamide], with 883 nM; and `O=C(NC1(c2ccc(OC(F)(F)F)cc2)CCOc2cccnc21)c1ccc2[nH]c(=O)oc2c1` (stereo not drawn) [Example 22, 2-oxo-N-(4-(4-(trifluoromethoxy)phenyl)-3,4-dihydro-2H-pyrano[3,2-b]pyridin-4-yl)-2,3-dihydrobenzo[d]oxazole-6-carboxamide], with 14 nM; and `O=C(NC1(c2ccc(OC(F)(F)F)cc2)CCOc2cccnc21)c1ccc2oc(=O)[nH]c2c1` (stereo not drawn) [Example 23, 2-oxo-N-(4-(4-(trifluoromethoxy)phenyl)-3,4-dihydro-2H-pyrano[3,2-b]pyridin-4-yl)-2,3-dihydrobenzo[d]oxazole-5-carboxamide], with 12 nM. As to `O=C(NC1(c2ccc(Cl)c(Cl)c2)CCOc2cccnc21)c1ccc2[nH]c(=O)oc2c1` (stereo not drawn) [Example 24, N-(4-(3,4-dichlorophenyl)-3,4-dihydro-2H-pyrano[3,2-b]pyridin-4-yl)-2-oxo-2,3-dihydrobenzo[d]oxazole-6-carboxamide], the IC50 was 23 nM. `O=C(NC1(c2ccc(Cl)c(Cl)c2)CCOc2cccnc21)c1ccc2oc(=O)[nH]c2c1` (stereo not drawn) [Example 25, N-(4-(3,4-dichlorophenyl)-3,4-dihydro-2H-pyrano[3,2-b]pyridin-4-yl)-2-oxo-2,3-dihydrobenzo[d]oxazole-5-carboxamide]: the IC50 turned out to be 19 nM. Then `O=C(NC1(c2ccccc2)CCOc2cccnc21)c1ccc2[nH]c(=O)oc2c1` (stereo not drawn) [Example 26, 2-oxo-N-(4-phenyl-3,4-dihydro-2H-pyrano[3,2-b]pyridin-4-yl)-2,3-dihydrobenzo[d]oxazole-6-carboxamide], with 14 nM. As for `O=C(NC1(c2ccc(C(F)(F)F)nc2)CCOc2cccnc21)c1ccc2oc(=O)[nH]c2c1` (stereo not drawn) [Example 27, 2-oxo-N-(4-(6-(trifluoromethyl)pyridin-3-yl)-3,4-dihydro-2H-pyrano[3,2-b]pyridin-4-yl)-2,3-dihydrobenzo[d]oxazole-5-carboxamide], the IC50 came out at 46 nM. With `O=C(NC1(c2ccc(C(F)(F)F)cc2)CCCc2cccnc21)c1ccccc1` (stereo not drawn) [Example 29, N-(8-(4-(trifluoromethyl)phenyl)-5,6,7,8-tetrahydroquinolin-8-yl)benzamide] the figure was 143 nM. Take `COC(=O)c1ccc(C(=O)NC2(c3ccc(OC(F)(F)F)c(F)c3)CCOc3cccnc32)nc1` (stereo not drawn) [Example 30, methyl 6-((4-(3-fluoro-4-(trifluoromethoxy)phenyl)-3,4-dihydro-2H-pyrano[3,2-b]pyridin-4-yl)carbamoyl)nicotinate]: the IC50 was 19 nM. `O=C(NC1(c2ccc(C(F)(F)F)cc2)CCCc2cccnc21)c1ccc(=O)[nH]c1` (stereo not drawn) [Example 31, 6-oxo-N-(8-(4-(trifluoromethyl)phenyl)-5,6,7,8-tetrahydroquinolin-8-yl)-1,6-dihydropyridine-3-carboxamide]: the IC50 came to 784 nM. Take `COc1ccc(C(=O)N[C@]2(c3ccc(C(F)(F)F)cc3)CCOc3cccnc32)cn1` [Example 32, (S)-6-methoxy-N-(4-(4-(trifluoromethyl)phenyl)-3,4-dihydro-2H-pyrano[3,2-b]pyridin-4-yl)nicotinamide]: the IC50 was 51 nM. `O=C1CCc2cc(C(=O)N[C@]3(c4ccc(C(F)(F)F)cc4)CCOc4cccnc43)ccc2N1` [Example 33, (S)-2-oxo-N-(4-(4-(trifluoromethyl)phenyl)-3,4-dihydro-2H-pyrano[3,2-b]pyridin-4-yl)-1,2,3,4-tetrahydroquinoline-6-carboxamide]: the IC50 amounted to 5 nM. `O=C(N[C@]1(c2ccc(C(F)(F)F)cc2)CCOc2cccnc21)c1ccc2cn[nH]c2c1` [Example 34, (S)-N-(4-(4-(trifluoromethyl)phenyl)-3,4-dihydro-2H-pyrano[3,2-b]pyridin-4-yl)-1H-indazole-6-carboxamide]: the IC50 was 24 nM. `O=C(N[C@]1(c2ccc(C(F)(F)F)cc2)CCOc2cccnc21)c1ccncn1` [Example 35, (S)-N-(4-(4-(trifluoromethyl)phenyl)-3,4-dihydro-2H-pyrano[3,2-b]pyridin-4-yl)pyrimidine-4-carboxamide]: the IC50 stood at 200 nM.
